Test results as given in ChEMBL document CHEMBL1201862, “PubChem BioAssay data set” (2004).
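Cells were grown in 96-well plates and exposed to each compound for 48 hours at five concentrations; endpoints were interpolated linearly between bracketing concentrations, or set to the highest concentration if not reached. GI50 marks 50% less growth.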 Activity calls are given as the source filed them. Cut-off read from the data, not from the text of the source: active = GI50 up to about 1.1 µM and inactive = higher.

Experiments:
Assay in all cases: NCI anticancer screen, dose series, 48 h
TK-10 = system: TK-10
SK-OV-3 = system: SK-OV-3
SK-MEL-5 = system: SK-MEL-5
HCT-116 = system: HCT-116
OVCAR-5 = system: OVCAR-5
Malme-3M = system: Malme-3M
UACC-257 = system: UACC-257
NCI-H226 = system: NCI-H226
EKVX = system: EKVX
SN12C = system: SN12C
COLO 205 = system: COLO 205
OVCAR-8 = system: OVCAR-8
ACHN = system: ACHN
K562 = system: K562
UO-31 = system: UO-31
CCRF-CEM = system: CCRF-CEM
LOX IMVI = system: LOX IMVI

Measured: GI50

CCC(CO)Nc1nc2c(c(=O)n(C)c(=O)n2C)n1CCO (centres undefined)
inactive: TK-10 > 100 µM | SK-OV-3 > 100 µM | SK-MEL-5 > 100 µM | HCT-116 > 100 µM | OVCAR-5 > 100 µM | Malme-3M > 100 µM | UACC-257 > 100 µM | NCI-H226 > 100 µM | EKVX > 100 µM | SN12C > 100 µM | COLO 205 > 100 µM | OVCAR-8 > 100 µM | ACHN > 100 µM | K562 > 100 µM | UO-31 > 100 µM

CC(C#N)c1cn(S(=O)(=O)c2ccccc2)c2ccccc12 (centres undefined)
inactive: TK-10 > 100 µM | SK-MEL-5 16.2 µM | HCT-116 40.1 µM | OVCAR-5 > 100 µM | Malme-3M 35.7 µM | UACC-257 31.3 µM | CCRF-CEM 48.8 µM | NCI-H226 25.7 µM | COLO 205 > 100 µM | OVCAR-8 80.7 µM | ACHN 33.3 µM | K562 39.8 µM | UO-31 15.8 µM

Nc1ccc(C(=O)N/C(=C\C=C\c2ccco2)c2nc3c(O)nc(S)nc3[nH]2)cc1
inactive: TK-10 > 100 µM | SK-OV-3 > 100 µM | SK-MEL-5 > 100 µM | OVCAR-5 > 100 µM | Malme-3M > 100 µM | CCRF-CEM > 100 µM | EKVX > 100 µM | SN12C > 100 µM | COLO 205 > 100 µM | OVCAR-8 > 100 µM | ACHN > 100 µM | K562 > 100 µM | UO-31 > 100 µM

COc1ccc(C(=O)O)c(Br)c1OCc1ccccc1
inactive: TK-10 > 100 µM | SK-OV-3 > 100 µM | SK-MEL-5 > 100 µM | HCT-116 > 100 µM | OVCAR-5 > 100 µM | CCRF-CEM > 100 µM | NCI-H226 > 100 µM | EKVX > 100 µM | SN12C 92.5 µM | COLO 205 > 100 µM | OVCAR-8 > 100 µM | LOX IMVI > 100 µM | ACHN > 100 µM | K562 > 100 µM | UO-31 88.3 µM

CC1=CC(/C=C(\C)CCCc2ccoc2)C2(OC(=O)C(C)=C2O)[C@H]2C1CC[C@@H]2C (some centres undefined)
inactive: TK-10 29.2 µM | SK-OV-3 26.2 µM | SK-MEL-5 20.3 µM | HCT-116 15.6 µM | Malme-3M 26.6 µM | UACC-257 29.5 µM | CCRF-CEM 22.1 µM | NCI-H226 22.7 µM | EKVX 31.7 µM | SN12C 20.5 µM | COLO 205 21.9 µM | OVCAR-8 28.6 µM | LOX IMVI 21.8 µM | ACHN 19.8 µM | K562 24.7 µM | UO-31 16.5 µM

CC(=O)Oc1c2c(c(O)c3ccccc13)C(n1cnc3c(ncn3C3OC(CO)C4OC(C)(C)OC43)c1=N)CCC2 (centres undefined)
inactive: TK-10 21.5 µM | SK-OV-3 19 µM | SK-MEL-5 12.1 µM | OVCAR-5 21.2 µM | Malme-3M 11.2 µM | UACC-257 10.2 µM | CCRF-CEM 5.24 µM | NCI-H226 23.3 µM | EKVX 22.2 µM | SN12C 18.1 µM | COLO 205 16.9 µM | OVCAR-8 11.2 µM | LOX IMVI 4.81 µM | ACHN 16.5 µM | K562 6.84 µM | UO-31 16.2 µM

O=C1NC2OC(CO)C(O)C(O)C2O1 (centres undefined)
inactive: TK-10 > 100 µM | SK-OV-3 > 100 µM | SK-MEL-5 > 100 µM | HCT-116 > 100 µM | OVCAR-5 > 100 µM | Malme-3M > 100 µM | UACC-257 > 100 µM | CCRF-CEM > 100 µM | EKVX > 100 µM | SN12C > 100 µM | COLO 205 > 100 µM | OVCAR-8 > 100 µM | LOX IMVI > 100 µM | ACHN > 100 µM | K562 > 100 µM | UO-31 > 100 µM

COc1cc(C=O)cc(O)c1O
inactive: TK-10 > 100 µM | SK-OV-3 > 100 µM | HCT-116 > 100 µM | Malme-3M > 100 µM | UACC-257 > 100 µM | CCRF-CEM 38.9 µM | NCI-H226 > 100 µM | EKVX > 100 µM | SN12C > 100 µM | COLO 205 > 100 µM | OVCAR-8 > 100 µM | LOX IMVI > 100 µM | ACHN > 100 µM | K562 > 100 µM | UO-31 > 100 µM

Cc1ccc(SSc2ccc(C)cc2C(=O)O)c(C(=O)O)c1
inactive: TK-10 > 100 µM | SK-OV-3 > 100 µM | SK-MEL-5 > 100 µM | OVCAR-5 > 100 µM | Malme-3M > 100 µM | UACC-257 > 100 µM | CCRF-CEM > 100 µM | NCI-H226 > 100 µM | EKVX > 100 µM | SN12C > 100 µM | COLO 205 > 100 µM | OVCAR-8 > 100 µM | LOX IMVI > 100 µM | ACHN > 100 µM | K562 > 100 µM | UO-31 > 100 µM

CCCCCc1cc(OC(=O)c2c(O)cc(OC)cc2CCCCC)cc(O)c1C(=O)O
inactive: TK-10 18.6 µM | SK-OV-3 16.7 µM | SK-MEL-5 14.8 µM | OVCAR-5 19.1 µM | Malme-3M 13 µM | CCRF-CEM 20.7 µM | EKVX 19 µM | SN12C 15.9 µM | COLO 205 18.2 µM | OVCAR-8 18.2 µM | LOX IMVI 17.7 µM | ACHN 17.3 µM | K562 26.8 µM | UO-31 13.6 µM

C[Si](C)(C)C1(Sc2ccccc2)SCCCS1
inactive: TK-10 > 100 µM | SK-OV-3 > 100 µM | SK-MEL-5 72.9 µM | HCT-116 21.3 µM | OVCAR-5 > 100 µM | Malme-3M 70.6 µM | UACC-257 38.7 µM | CCRF-CEM 14.8 µM | EKVX 47.9 µM | SN12C 27 µM | COLO 205 41.5 µM | OVCAR-8 33.8 µM | LOX IMVI 31.6 µM | ACHN 35.9 µM | K562 31.1 µM | UO-31 6.27 µM

COc1ccc2ccc([Se]c3ccc4ccc(OC)cc4c3)cc2c1
inactive: TK-10 > 100 µM | SK-OV-3 > 100 µM | SK-MEL-5 > 100 µM | HCT-116 58.1 µM | Malme-3M > 100 µM | UACC-257 > 100 µM | CCRF-CEM 49.8 µM | NCI-H226 63.1 µM | SN12C 90.6 µM | COLO 205 > 100 µM | OVCAR-8 21.8 µM | LOX IMVI > 100 µM | ACHN 29.2 µM | K562 > 100 µM | UO-31 23.7 µM

Cc1ccc2c(c1)C1(C)OC(CC(N)C1O)O2 (centres undefined)
inactive: TK-10 > 100 µM | SK-OV-3 > 100 µM | SK-MEL-5 > 100 µM | HCT-116 > 100 µM | Malme-3M > 100 µM | UACC-257 > 100 µM | CCRF-CEM > 100 µM | NCI-H226 > 100 µM | EKVX > 100 µM | SN12C > 100 µM | COLO 205 > 100 µM | OVCAR-8 > 100 µM | LOX IMVI > 100 µM | ACHN > 100 µM | K562 > 100 µM | UO-31 > 100 µM

FC1OC2OC1C(OCc1ccccc1)C(OCc1ccccc1)C2OCc1ccccc1 (centres undefined)
inactive: TK-10 52.8 µM | SK-OV-3 > 100 µM | SK-MEL-5 45.6 µM | HCT-116 25.3 µM | OVCAR-5 > 100 µM | Malme-3M 48.3 µM | UACC-257 35.5 µM | CCRF-CEM 26.6 µM | NCI-H226 77.3 µM | EKVX 87.7 µM | SN12C 58.6 µM | COLO 205 61.9 µM | OVCAR-8 35.4 µM | LOX IMVI 43.8 µM | K562 25.8 µM | UO-31 36.1 µM

CC#C[C@@]1(O)CCCCC1O (some centres undefined)
inactive: TK-10 > 100 µM | SK-OV-3 > 100 µM | SK-MEL-5 > 100 µM | HCT-116 > 100 µM | Malme-3M > 100 µM | UACC-257 > 100 µM | CCRF-CEM > 100 µM | NCI-H226 > 100 µM | EKVX > 100 µM | SN12C > 100 µM | COLO 205 > 100 µM | OVCAR-8 > 100 µM | LOX IMVI > 100 µM | ACHN > 100 µM | K562 > 100 µM | UO-31 > 100 µM

Cc1cccc(C(C)(C)C)c1NC(=O)CC1Sc2ccccc2NC1=O (centres undefined)
inactive: TK-10 41.7 µM | SK-OV-3 > 100 µM | SK-MEL-5 > 100 µM | HCT-116 22.4 µM | OVCAR-5 > 100 µM | Malme-3M > 100 µM | UACC-257 36.2 µM | CCRF-CEM 55.7 µM | NCI-H226 94.2 µM | EKVX > 100 µM | SN12C > 100 µM | COLO 205 24 µM | OVCAR-8 94.2 µM | ACHN 57.5 µM | K562 33 µM | UO-31 60.5 µM

COC(=O)C(=O)C(CC(=O)Nc1cccc(C(F)(F)F)c1)C(=O)OC (centres undefined)
inactive: TK-10 > 100 µM | SK-OV-3 > 100 µM | SK-MEL-5 > 100 µM | HCT-116 > 100 µM | OVCAR-5 > 100 µM | Malme-3M > 100 µM | CCRF-CEM > 100 µM | NCI-H226 > 100 µM | EKVX > 100 µM | SN12C > 100 µM | COLO 205 > 100 µM | OVCAR-8 > 100 µM | LOX IMVI > 100 µM | ACHN > 100 µM | K562 > 100 µM | UO-31 > 100 µM

O=C1COc2cc3c(cc2N1)SCCC(=O)N3
inactive: TK-10 > 100 µM | SK-OV-3 > 100 µM | SK-MEL-5 > 100 µM | HCT-116 > 100 µM | Malme-3M > 100 µM | UACC-257 > 100 µM | CCRF-CEM > 100 µM | NCI-H226 > 100 µM | EKVX > 100 µM | SN12C > 100 µM | COLO 205 > 100 µM | OVCAR-8 > 100 µM | K562 > 100 µM | UO-31 > 100 µM
